Measured values taken from paper PMC8478281, “Targeting the FtsZ Allosteric Binding Site with a Novel Fluorescence Polarization Screen, Cytological and Structural Approaches for Antibacterial Discovery” (Journal of Medicinal Chemistry, 2021).
Values after ≈ are worked out from the molar mass of the structure shown. Where two headings read alike, the source gives them in different places.

Assays:
B. subtilis [1] = experiment: Minimal growth inhibitory concentration (broth macrodilution), B. subtilis; format: cell-based, Bacillus subtilis; conditions: for MIC: Bacillus subtilis; for MIC B. subtilis: Table S1, fluorescent probes
Method: (§1) B. subtilis 168 and Staphylococcus spp. were grown in cation adjusted Mueller–Hinton broth (CAMHB; Becton, Dickinson and Company) at 37 °C. B. subtilis SU570 were grown in the same medium at 30 °C. In all cases, the cells were grown to an absorbance of 0.1–0.2 at 600 nm and then incubated either with the compounds or DMSO vehicle. Microscopy assays and cell measurement were performed as previously described.[31] MIC values were determined by a broth macrodilution method.[51] MBC values were determined as the lowest concentration of inhibitor at which there was a 99.9% reduction in colony-forming units/mL compared to the inoculum. To construct a S. aureus strain expressing FtsZ-mCherry, the plasmid pCN-ftsZmch[9] was electroporated into RN4220 and 0.1 μM cadmium chloride (Sigma-Aldrich) was used to induce the expression of the construct under the control of the Pcad promoter.

S. aureus Mu50 = experiment: Minimal growth inhibitory concentration (broth macrodilution), S. aureus Mu50; format: cell-based, Staphylococcus aureus; conditions: for MIC: Staphylococcus aureus, MU50, read-out: MIC S. aureus Mu50; for MIC S. aureus Mu50: Table S1, fluorescent probes
Method: as §1

[2] = target: T1, stabilized polymers of FtsZ from B. subtilis (Bacillus subtilis, UniProt P17865); experiment: Competition assay: displacement of probe (R)-5 from stabilized BsFtsZ-GMPCPP polymers; format: binding; conditions: for Kd: stabilized polymers of FtsZ from B. subtilis, probe (R)-5, mean ± SEM, read-out: KD
T1 construct: made in house
Method: (§2) FtsZ (10–15 μM) was assembled in HEPES buffer, 10 mM MgCl2, 50 μM GMPCPP at 25 °C for 10 min, and then 0.15% (v/v) glutaraldehyde[36] (distilled grade for microscopy, TAAB Laboratories, U.K.) was added to the solution that was incubated at 25 °C for 10 min more. (This was the minimal glutaraldehyde concentration determined to stabilize FtsZ polymers specifically binding probe 1.) The remains of the cross-linking agent were quenched by adding 60 mM NaBH4, the sample was incubated on ice for 10 min and degassed.[36] Cross-linked polymers were centrifuged for 10 min at 8200g (5000 rpm) and 4 °C in 15 mL Falcon tubes employing a Rotina 380R (Hettich) centrifuge, the supernatant was removed and the pellet was resuspended in the same volume of HEPES buffer, 10 mM MgCl2, containing 5 μM GMPCPP. Fixed FtsZ polymers were active in binding assays after more than 2 days at 4 °C; they could also be frozen in liquid nitrogen with a small loss of binding capacity. […] Cross-linked polymers of SaFtsZ were similarly prepared.
Competition assays were performed by measuring, through the decrease in fluorescence anisotropy, the displacement of the fluorescent probes from stabilized FtsZ polymers. Increasing concentrations of competing ligands were added to the mixtures of cross-linked FtsZ polymers (10–15 μM) with probe 1 (3 μM), 7–8 μM FtsZ polymers with probe (S)-2 (3 μM), or 2–3 μM FtsZ polymers with (R)-5 (3 μM). HEPES buffer with 10 mM MgCl2 and 0.1 mM GMPCPP was employed, with a final volume of 0.5 mL, and the anisotropy measured at 25 °C. Under these conditions, the initial fraction of the probe bound was between 0.4 and 0.5. The fraction of the probe bound (Vb) was calculated [drawing 1] where rfree and rmax are the anisotropy values of the free and bound probes, respectively, and R is the ratio between the fluorescence intensities of the bound and free probe (Table S1). The binding data were plotted against the competing ligand concentration and fitted by competition equilibrium of the ligand and the probe for the same binding site. The resulting system of equations[50] was numerically solved using the Equigra v. 5.0 program,[33] which provided the best-fitted value of the competitor binding constant.

[3] = Solubility in HEPES buffer with 2% DMSO, spectrophotometric; format: physicochemical; conditions: HEPES buffer containing 2% DMSO, 25 °C, aqueous buffer, kinetic from dmso stock; HEPES buffer pH 6.8 containing 2% DMSO
Method: 3.2. Solubility of Compounds. Stock solutions of compounds were prepared in
DMSO (spectroscopic grade, Merck) a nd stored at -20 °C. Compound solubility in 50
mM HEPES-KOH, 50 mM KCl, 1 mM EDTA, pH 6.8 (HEPES buffer) containing 2%
DMSO was determined spectrophotometrically, monitoring the linear correlation
between the absorbance and the compound concentration and the absence of light
scattering. The solutions were optionally centrifuged at 100000 rpm for 20 min at 25 °C
in a TLA100 rotor with a Beckman Optima Max -XP ultracentrifuge.

B. subtilis [4] = experiment: Minimal division inhibitory concentration and cell division phenotype, B. subtilis; format: cell-based, Bacillus subtilis; conditions: for minimal effective concentration: Bacillus subtilis, read-out: MDC B. subtilis; for toxicity to the bacterial cells, in words: B. subtilis cell division tests
Method: as §1

[5] = target: T2, FtsZ-GMPCPP polymers (BsFtsZ) (Bacillus subtilis, UniProt P17865); experiment: Binding titration of the fluorescent probes to FtsZ polymers by fluorescence anisotropy; conditions: for Imax/Imin / rmax (all probe bound) / rmin (free probe) / Kd: FtsZ-GMPCPP polymers, best fit values from binding titrations
T2 construct: made in house
Method: (§3) FtsZ from B. subtilis (BsFtsZ) was prepared as described previously.[35] FtsZ was assembled in 50 mM N-(2-hydroxyethyl)piperazine-N′-ethanesulfonic acid (HEPES)-KOH, 50 mM KCl, 1 mM ethylenediaminetetraacetic acid (EDTA), pH 6.8 (HEPES buffer) plus 10 mM MgCl2, and 1 mM GTP or 0.1 mM GMPCPP at 25 °C. FtsZ assembly was monitored by light scattering.[34]
The fluorescence spectra and anisotropy values of the different probes were acquired with a Fluoromax-4 (Horiba Jobin Yvon) photon-counting L-format spectrofluorometer using 2 mm × 10 mm cells at 25 °C, employing the maximum excitation and emission wavelength for each probe with 2 and 5 nm bandwidths, respectively. Anisotropy values were automatically measured as r = (Ivv – G Ivh)/(Ivv + 2G Ivh), where the subscripts refer to the vertical (v) or horizontal (h) positions of the excitation (first subscript) and emission (second subscript) polarizers, and G = Ihv/Ihh. Total intensity values were simultaneously determined as IT = Ivv +2G Ivh. Note that measurement correction procedures with T-format (double channel) fluorometers and with plate readers are slightly different.
as §2
Binding affinity of the probes to FtsZ was measured by an increase in anisotropy of the probe (adapted from ref ([49])). Fixed concentrations of the probes (3 μM) were titrated with different FtsZ polymer concentrations (0–40 μM) in HEPES buffer with Mg^2+, to obtain the anisotropy increment, Δrmax, corresponding to the bound probe. The increase in anisotropy was plotted against the FtsZ polymer concentration (calculated by subtracting from the total protein concentration the critical concentration for polymerization under the same conditions) and iteratively least-squares fitted with an isotherm of binding to one site. The estimated values of Δrmax were used to approximate the free FtsZ concentrations, and these new values were employed again until an unchanging Δrmax value was obtained. The convergent data were used to calculate the binding constant of the fluorescent probe to FtsZ polymers (Table S1).

BsFtsZ = target: T3, BsFtsZ (Bacillus subtilis, UniProt P17865); experiment: Fluorescence anisotropy of probes after consecutive additions of FtsZ, GMPCPP, MgCl2 and PC190723; format: binding; conditions: for Fluorescence anisotropy (r): free probe: probe 10 μM in buffer; for Fluorescence anisotropy (r): + FtsZ (unassbld.) / Fluorescence anisotropy (r): + GMPCPP / Fluorescence anisotropy (r): + MgCl2 (polymer): probe 10 μM, FtsZ 10 μM; for Fluorescence anisotropy (r): + GMPCPP / Fluorescence anisotropy (r): + MgCl2 (polymer): GMPCPP 0.1 mM; for Fluorescence anisotropy (r): + MgCl2 (polymer): MgCl2 10 mM, 5–10 min
T3 construct: made in house
Method: (A) Fluorescence anisotropy values of the free probes (10 μM) in buffer, to which FtsZ (10 μM, unassembled) was added, followed by the slowly hydrolyzable GTP analogue GMPCPP (0.1 mM). BsFtsZ polymerization was then induced by the addition of MgCl2 (10 mM) and anisotropy values were recorded 5–10 min later. Nonfluorescent PC190723 (10 μM) was subsequently added to displace the fluorescent probe and anisotropy was measured 5 min later. (B) Fluorescence microscopy images of B. subtilis cells treated for 1.5 h with the minimal division inhibitory concentrations (MDC) of (S)-2 and each enantiomer of 5 (Table S1), acquired employing the probe fluorescence.
as §3

[6] = PC190723 10 μM added to the polymer, 5 min

T3 sequence (P17865 whole entry): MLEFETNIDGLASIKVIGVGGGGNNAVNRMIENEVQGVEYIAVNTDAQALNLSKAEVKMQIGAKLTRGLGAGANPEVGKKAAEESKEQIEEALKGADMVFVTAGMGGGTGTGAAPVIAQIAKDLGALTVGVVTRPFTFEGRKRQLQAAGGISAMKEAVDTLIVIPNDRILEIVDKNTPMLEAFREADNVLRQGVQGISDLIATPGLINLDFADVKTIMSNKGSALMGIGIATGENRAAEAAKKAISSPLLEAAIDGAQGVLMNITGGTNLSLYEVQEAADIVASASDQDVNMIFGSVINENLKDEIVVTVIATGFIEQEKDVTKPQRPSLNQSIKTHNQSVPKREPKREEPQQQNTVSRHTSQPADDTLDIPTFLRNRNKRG
T2 sequence (P17865 whole entry): as above
T1 sequence (P17865 whole entry): as above

NC(=O)c1cccc(OCc2cccc(Cl)c2)c1 [Compound 11]
MIC (B. subtilis [1]; read-out: MIC B. subtilis): 50 µM (≈ 13.1 µg/mL)
MIC (S. aureus Mu50): > 100 µM
fold lower KD and MDC than 3-aminobenzamide analogue 6 [2]: more than 10 fold
Kd [2]: 9.3 ± 0.5 µM
solubility [3]: 100 µM (≈ 26.2 µg/mL)
minimal effective concentration (B. subtilis [4]): 50 µM

NC(=O)c1c(F)ccc(OCc2ccccc2C(F)(F)F)c1F [Compound 19]
MIC (B. subtilis [1]; read-out: MIC B. subtilis): > 100 µM
MIC (S. aureus Mu50): > 100 µM
Kd [2]: 71 ± 6 µM
solubility [3]: 50 µM (≈ 16.6 µg/mL)
minimal effective concentration (B. subtilis [4]): > 100 µM

CCC[C@@H](CNc1ccc([N+](=O)[O-])c2nonc12)Oc1ccc(F)c(C(N)=O)c1F [(S)-2]
MIC B. subtilis (B. subtilis [1]): 250 µM (≈ 105 µg/mL)
MIC S. aureus Mu50 (S. aureus Mu50): > 250 µM
Imax/Imin [5]: 2.4
rmax (all probe bound) [5]: 0.258
rmin (free probe) [5]: 0.028
Kd [5]: 8 ± 1 µM
Fluorescence anisotropy (r): + PC190723 (BsFtsZ; [6]): 0.065
Fluorescence anisotropy (r): free probe (BsFtsZ): 0.037
Fluorescence anisotropy (r): + FtsZ (unassbld.) (BsFtsZ): 0.041
Fluorescence anisotropy (r): + GMPCPP (BsFtsZ): 0.044
Fluorescence anisotropy (r): + MgCl2 (polymer) (BsFtsZ): 0.172

CCC[C@H](CNc1ccc([N+](=O)[O-])c2nonc12)Oc1ccc(F)c(C(N)=O)c1F [(R)-2]
MIC B. subtilis (B. subtilis [1]): > 250 µM
MIC S. aureus Mu50 (S. aureus Mu50): > 250 µM
Imax/Imin [5]: 1.0
rmax (all probe bound) [5]: 0.067
rmin (free probe) [5]: 0.038
Fluorescence anisotropy (r): + PC190723 (BsFtsZ; [6]): 0.051
Fluorescence anisotropy (r): free probe (BsFtsZ): 0.037
Fluorescence anisotropy (r): + FtsZ (unassbld.) (BsFtsZ): 0.046
Fluorescence anisotropy (r): + GMPCPP (BsFtsZ): 0.050
Fluorescence anisotropy (r): + MgCl2 (polymer) (BsFtsZ): 0.081
inhibition of B. subtilis cell division, in words (B. subtilis [4]): inactive

CCCC(CNc1ccc([N+](=O)[O-])c2nonc12)Oc1ccc(F)c(C(N)=O)c1F (stereo not drawn) [Compound 2, 2,6-Difluoro-3-[(1-{[(7-nitro-2,1,3-benzoxadiazol-4-yl)amino]methyl}butyl)oxy]benzamide]
Fluorescence anisotropy (r): + PC190723 (BsFtsZ; [6]): 0.053
Fluorescence anisotropy (r): free probe (BsFtsZ): 0.037
Fluorescence anisotropy (r): + FtsZ (unassbld.) (BsFtsZ): 0.039
Fluorescence anisotropy (r): + GMPCPP (BsFtsZ): 0.046
Fluorescence anisotropy (r): + MgCl2 (polymer) (BsFtsZ): 0.157

NC(=O)c1ccc(OCc2cccc(Cl)c2)cc1 [Compound 14]
MIC (B. subtilis [1]): > 500 µM
toxicity to the bacterial cells, in words (B. subtilis [4]): toxic

CCCCCC(CNc1ccc([N+](=O)[O-])c2nonc12)Oc1ccc(F)c(C(N)=O)c1F (stereo not drawn) [Compound 3, 2,6-Difluoro-3-[(1-{[(7-nitro-2,1,3-benzoxadiazol-4-yl)amino]methyl}hexyl)oxy]benzamide]
Fluorescence anisotropy (r): + PC190723 (BsFtsZ; [6]): 0.135
Fluorescence anisotropy (r): free probe (BsFtsZ): 0.049
Fluorescence anisotropy (r): + FtsZ (unassbld.) (BsFtsZ): 0.104
Fluorescence anisotropy (r): + GMPCPP (BsFtsZ): 0.115
Fluorescence anisotropy (r): + MgCl2 (polymer) (BsFtsZ): 0.261

CCCN(Cc1cccc(Cl)c1)c1cccc(C(N)=O)c1 [Compound 8]
solubility [3]: 5 µM (≈ 1.51 µg/mL)
toxicity to the bacterial cells, in words (B. subtilis [4]): toxic to the bacterial cells

CCCC(COc1ccc(F)c(C(N)=O)c1F)Nc1ccc([N+](=O)[O-])c2nonc12 (stereo not drawn) [Compound 5, 2,6-Difluoro-3-{2-[(4-nitro-2,1,3-benzoxadiazol-7-yl)amino]pentoxy}benzamide]
Fluorescence anisotropy (r): + PC190723 (BsFtsZ; [PC190723] = 30 μM): 0.055
Fluorescence anisotropy (r): free probe (BsFtsZ): 0.031
Fluorescence anisotropy (r): + FtsZ (unassbld.) (BsFtsZ): 0.034
Fluorescence anisotropy (r): + GMPCPP (BsFtsZ): 0.036
Fluorescence anisotropy (r): + MgCl2 (polymer) (BsFtsZ): 0.203

CCC[C@@H](COc1ccc(F)c(C(N)=O)c1F)Nc1ccc([N+](=O)[O-])c2nonc12 [(S)-5]
MIC B. subtilis (B. subtilis [1]): 250 µM (≈ 105 µg/mL)
MIC S. aureus Mu50 (S. aureus Mu50): > 250 µM
fold reduced affinity with respect to (R)-5 [5]: 8 fold
Imax/Imin [5]: 1.7
rmax (all probe bound) [5]: 0.178
rmin (free probe) [5]: 0.025
Kd [5]: 15 ± 2 µM
Fluorescence anisotropy (r): + PC190723 (BsFtsZ; [6]): 0.038
Fluorescence anisotropy (r): free probe (BsFtsZ): 0.030
Fluorescence anisotropy (r): + FtsZ (unassbld.) (BsFtsZ): 0.042
Fluorescence anisotropy (r): + GMPCPP (BsFtsZ): 0.041
Fluorescence anisotropy (r): + MgCl2 (polymer) (BsFtsZ): 0.096

2,6-Difluoro-3-[(1-{[(7-nitro-2,1,3-benzoxadiazol-4-yl)amino]methyl}nonyl)-oxy]benzamide [Compound 4]
Fluorescence anisotropy (r): + PC190723 (BsFtsZ; [6]): 0.324
Fluorescence anisotropy (r): free probe (BsFtsZ): 0.045
Fluorescence anisotropy (r): + FtsZ (unassbld.) (BsFtsZ): 0.130
Fluorescence anisotropy (r): + GMPCPP (BsFtsZ): 0.186
Fluorescence anisotropy (r): + MgCl2 (polymer) (BsFtsZ): 0.317
